This is an account of results in patent EP0908457B1, “3-(1,2-benzisothiazol- and isoxazol-5-Y1)-2,4(1H,3H)-pyrimidinedione or thione and 3-(1,2-benzisothiazol- and isoxazol-5-y1)-4(3H)-pyrimidinone or thione herbicidal agents” (BASF AKTIENGESELLSCHAFT, priority 1997, dated 1999).

Holding throughout (assay type): in vivo
In one assay the test system is Sagittaria pygmaea, L. The assay is described as follows: Preemergence weed control under flooded paddy conditions, SAGPY (Arrowhead (Pygmaea)). To be noted: preemergence, flooded paddy, rated three to four weeks after treatment.
Assay [1] concerns Echinochloa oryzoides (Ard.) Fritsch. The assay is described as follows: Preemergence weed control under flooded paddy conditions, ECHORC (Watergrass (Calif.)). To be noted: preemergence, flooded paddy, rated three to four weeks after treatment.
The test system of assay [2] is Cyperus serotinus, Rottb. The assay is described as follows: Preemergence weed control under flooded paddy conditions, CYPSE (Flatsedge). To be noted: preemergence, rated three to four weeks after treatment.
The subject of assay [3] is Monochoria vaginalis, Presl. The assay is described as follows: Preemergence weed control under flooded paddy conditions, MOOVA (Monochoria). To be noted: preemergence, flooded paddy, rated three to four weeks after treatment.
The subject of a further assay is Cyperus iria. As to the kind of experiment: Preemergence weed control under flooded paddy conditions, CYPIR (Rice Flatsedge). The settings on record: preemergence, flooded paddy, rated three to four weeks after treatment.

Turning to `Cn1c(C(F)(F)F)cc(=O)n(-c2ccc3snc(COC(=O)NCc4ccccc4)c3c2)c1=O` [Example 390, 2,4(1H,3H)-Pyrimidinedione, 3-[3-(hydroxymethyl)-1,2-benzisothiazol-5-yl]-1-methyl-6-(trifluoromethyl)-, benzylcarbamate (ester)], the “herbicidal effect rating, SAGPY” value with Sagittaria pygmaea, L. (Rate 0.0320 kg/ha) amounted to 2.5; in the assay with Sagittaria pygmaea, L. (Rate 0.0620 kg/ha), 5.5; in the assay on Sagittaria pygmaea, L. (Rate 0.1250 kg/ha), 8.0; with Sagittaria pygmaea, L. (Rate 0.2500 kg/ha) it was 8.0; in the assay on Sagittaria pygmaea, L. (Rate 0.5000 kg/ha), 9.0. The “herbicidal effect rating, ECHORC” value was found to be 5.5 in assay [1] (Rate 0.0320 kg/ha); 7.0 in assay [1] (Rate 0.0620 kg/ha); 8.0 in assay [1] (Rate 0.1250 kg/ha); 9.0 in assay [1] (Rate 0.2500 kg/ha); 9.0 in assay [1] (Rate 0.5000 kg/ha). For the same compound, the “herbicidal effect rating, CYPSE” value was determined as 2.5 in assay [2] (Rate 0.0320 kg/ha), 4.0 in assay [2] (Rate 0.1250 kg/ha), 9.0 in assay [2] (Rate 0.2500 kg/ha) and 6.0 in assay [2] (Rate 0.5000 kg/ha). In addition, the “herbicidal effect rating, MOOVA” value in assay [3] (Rate 0.0320 kg/ha), in assay [3] (Rate 0.0620 kg/ha), in assay [3] (Rate 0.1250 kg/ha), in assay [3] (Rate 0.2500 kg/ha) and in assay [3] (Rate 0.5000 kg/ha) was 9.0 in each case. The “herbicidal effect rating, CYPIR” value with Cyperus iria (Rate 0.0320 kg/ha) is reported as 1.0; in the assay with Cyperus iria (Rate 0.0620 kg/ha), 4.0; in the assay on Cyperus iria (Rate 0.1250 kg/ha), 7.0; in the assay with Cyperus iria (Rate 0.2500 kg/ha), 9.0; in the assay with Cyperus iria (Rate 0.5000 kg/ha), 9.0.

As to `COC(=O)C(C)Oc1cc(C)c(I)cc1-c1nsc2ccc(-n3c(=O)cc(C(F)(F)F)n(C)c3=O)cc12` (stereo not shown) [Example 470, Propionic acid, 2-{{6-{5-[3,6-dihydro-3-methyl-2,6-dioxo-4-(trifluoromethyl)-1(2H)-pyrimidinyl]-1,2-benzisothiazol-3-yl}-4-iodo-m-tolyl}oxy}-, methyl ester], the SAGPY herbicidal rating with Sagittaria pygmaea, L. (0.0320 kg/ha) came to 0.0; in the assay on Sagittaria pygmaea, L. (0.0620 kg/ha), 0.0; in the assay with Sagittaria pygmaea, L. (0.1250 kg/ha) it was 0.0; with Sagittaria pygmaea, L. (0.2500 kg/ha), 1.5. Besides, the ECHORC herbicidal rating amounted to 8.5 in assay [1] (0.0320 kg/ha), 9.0 in assay [1] (0.0620 kg/ha), 9.0 in assay [1] (0.1250 kg/ha) and 9.0 in assay [1] (0.2500 kg/ha). The CYPSE herbicidal rating in assay [2] (0.0320 kg/ha) was found to be 0.0; in assay [2] (0.0620 kg/ha), 0.0; in assay [2] (0.1250 kg/ha), 0.0; in assay [2] (0.2500 kg/ha) it was 4.5. In addition, the MOOVA herbicidal rating in assay [3] (0.0320 kg/ha) is reported as 1.5; in assay [3] (0.0620 kg/ha), 2.0; in assay [3] (0.1250 kg/ha), 2.0; in assay [3] (0.2500 kg/ha), 3.0. Moreover, the CYPIR herbicidal rating in the assay on Cyperus iria (0.0320 kg/ha) is recorded as 0.0; in the assay with Cyperus iria (0.0620 kg/ha), 0.0; with Cyperus iria (0.1250 kg/ha), 6.0; in the assay with Cyperus iria (0.2500 kg/ha), 7.0.

Regarding `COC(CCOc1ccc(C)cc1-c1nsc2ccc(-n3c(=O)cc(C(F)(F)F)n(C)c3=O)cc12)OC` [Example 467, Propionaldehyde, 3-{{2-[5-{3,6-dihydro-3-methyl-2,6-dioxo-4-(trifluoromethyl)-1(2H)-pyrimidinyl]-1,2-benzisothiazol-3-yl}-p-tolyl}oxy}-, 1-(dimethylacetal)], the SAGPY herbicidal rating was found to be 0.0 in the assay with Sagittaria pygmaea, L. (0.0320 kg/ha); 0.0 in the assay with Sagittaria pygmaea, L. (0.0620 kg/ha); 3.0 in the assay with Sagittaria pygmaea, L. (0.1250 kg/ha); 7.0 in the assay on Sagittaria pygmaea, L. (0.2500 kg/ha). Moreover, the ECHORC herbicidal rating came out at 6.0 in assay [1] (0.0320 kg/ha), 7.0 in assay [1] (0.0620 kg/ha), 9.0 in assay [1] (0.1250 kg/ha) and 9.0 in assay [1] (0.2500 kg/ha). In addition, the CYPSE herbicidal rating in assay [2] (0.0320 kg/ha) amounted to 6.0; in assay [2] (0.0620 kg/ha), 7.0; in assay [2] (0.1250 kg/ha), 9.0; in assay [2] (0.2500 kg/ha) it was 9.0. For the same compound, the MOOVA herbicidal rating is 7.0 in assay [3] (0.0320 kg/ha), 9.0 in assay [3] (0.0620 kg/ha), 9.0 in assay [3] (0.1250 kg/ha) and 9.0 in assay [3] (0.2500 kg/ha). Also, the CYPIR herbicidal rating worked out at 2.0 in the assay with Cyperus iria (0.0320 kg/ha), 5.0 with Cyperus iria (0.0620 kg/ha), 6.0 in the assay with Cyperus iria (0.1250 kg/ha) and 9.0 in the assay with Cyperus iria (0.2500 kg/ha).

Regarding `Cn1c(C(F)(F)F)cc(=O)n(-c2ccc3snc(C[S+]([O-])c4ccccc4)c3c2)c1=O` (stereo not shown) [Example 394, 2,4(1H,3H)-Pyrimidinedione, 1-methyl-3-{3-[(phenylsulfinyl)methyl]-1,2-benzisothiazol-5-yl}-6-(trifluoromethyl)-], the “herbicidal effect rating, SAGPY” value turned out to be 0.0 in the assay with Sagittaria pygmaea, L. (Rate 0.0620 kg/ha); 0.0 in the assay with Sagittaria pygmaea, L. (Rate 0.1250 kg/ha); 0.0 in the assay with Sagittaria pygmaea, L. (Rate 0.2500 kg/ha). In addition, the “herbicidal effect rating, ECHORC” value in assay [1] (Rate 0.0320 kg/ha) came out at 0.0; in assay [1] (Rate 0.0620 kg/ha) it was 0.0; in assay [1] (Rate 0.1250 kg/ha), 4.0; in assay [1] (Rate 0.2500 kg/ha), 6.0. The “herbicidal effect rating, CYPSE” value was 0.0 in assay [2] (Rate 0.0320 kg/ha), 0.0 in assay [2] (Rate 0.0620 kg/ha), 0.0 in assay [2] (Rate 0.1250 kg/ha) and 2.0 in assay [2] (Rate 0.2500 kg/ha). Moreover, the “herbicidal effect rating, MOOVA” value in assay [3] (Rate 0.0320 kg/ha) is given as 8.0; in assay [3] (Rate 0.0620 kg/ha) it was 8.0; in assay [3] (Rate 0.1250 kg/ha), 9.0; in assay [3] (Rate 0.2500 kg/ha), 9.0. The “herbicidal effect rating, CYPIR” value with Cyperus iria (Rate 0.0320 kg/ha) was 0.0; in the assay on Cyperus iria (Rate 0.0620 kg/ha), 3.0; in the assay on Cyperus iria (Rate 0.1250 kg/ha) it was 5.0; in the assay on Cyperus iria (Rate 0.2500 kg/ha), 7.0.

Consider `CC(OCc1nsc2ccc(-n3c(=O)cc(C(F)(F)F)n(C)c3=O)cc12)C(F)(F)F` (stereo not shown) [Example 208], for which the “SAGPY herbicidal effect rating” value with Sagittaria pygmaea, L. (Rate 0.0313 kg/ha) worked out at 0.0; in the assay on Sagittaria pygmaea, L. (Rate 0.0625 kg/ha) it was 0.0; with Sagittaria pygmaea, L. (Rate 0.1250 kg/ha) it was 0.0; with Sagittaria pygmaea, L. (Rate 0.2500 kg/ha), 0.0. The “ECHORC herbicidal effect rating” value in assay [1] (Rate 0.0313 kg/ha), in assay [1] (Rate 0.0625 kg/ha), in assay [1] (Rate 0.1250 kg/ha) and in assay [1] (Rate 0.2500 kg/ha) was 0.0 each time. The “CYPSE herbicidal effect rating” value in assay [2] (Rate 0.0313 kg/ha), in assay [2] (Rate 0.0625 kg/ha), in assay [2] (Rate 0.1250 kg/ha) and in assay [2] (Rate 0.2500 kg/ha) was 0.0 in each case. Further, the “MOOVA herbicidal effect rating” value turned out to be 0.0 in assay [3] (Rate 0.0313 kg/ha), 2.0 in assay [3] (Rate 0.0625 kg/ha), 2.0 in assay [3] (Rate 0.1250 kg/ha) and 4.0 in assay [3] (Rate 0.2500 kg/ha). For the same compound, the “CYPIR herbicidal effect rating” value in the assay on Cyperus iria (Rate 0.0313 kg/ha), in the assay with Cyperus iria (Rate 0.0625 kg/ha), with Cyperus iria (Rate 0.1250 kg/ha) and in the assay on Cyperus iria (Rate 0.2500 kg/ha) was 9.0 each time.
